How the values were obtained:
[1] = Temperature dependence of Stokes luminescence intensity of dye in solution; format: physicochemical; details: for temperature-sensitive properties of Stokes luminescence: 10 μM dye, emission spectra at different temperatures
Experimental: (§1) Concentration of dye is 10 μM, and solvent is 150 mM KCl solution, pH 7.5; (d) Stokes emission spectra (excited at 530 nm) of 10 μM RhBME (dissolved in 150 mM KCl solution at pH 7.5) at different temperatures (from bottom to top, 45, 35, 25, 15, 5[…] respectively), and Stokes luminescence intensity is normalized against peak at 25[…].

[2] = Temperature dependence of anti-Stokes luminescence intensity of dye in solution; format: physicochemical; details: 10 μM in 150 mM KCl pH 7.5, excited at 633 nm, 5-45 degrees
Experimental: as §1, with “anti-Stokes” for “Stokes”, “633” for “530”, “Rh101ME” for “RhBME”, “top” for “bottom”, “bottom,” for “top,”
From the spectrogram of Rh101 and derivatives thereof (FIG. 1a), it can be seen that there is no significant difference in spectroscopic characteristics between the compound of formula II (Rh101AM) or the compound of formula IV (Rh101ME) and Rh101.

[3] = literature [2, 3]; cited from earlier work
[4] = literature [2, 3]; cited from earlier work; remark: listed apart in the source

Compound | temperature-sensitive properties of Stokes luminescence [1] | Stokes luminescence intensity vs temperature [1] | also measured
CCN(CC)c1ccc2c(-c3ccccc3C(=O)OCc3ccc(C(=O)Nc4cc5cccnc5c5ncccc45)cc3)c3ccc(=[N+](CC)CC)cc-3oc2c1 [RPA, Rhodamine B-[(1,10-phenanthrolin-5-yl)aminocarbonyl]benzyl ester] | possess temperature-sensitive properties |  | 
O=C(O)c1ccccc1C1=c2cc3c4c(c2Oc2c1cc1c5c2CCCN5CCC1)CCC[N+]=4CCC3 [Rh101, rhodamine 101] | does not possess temperature-sensitive properties |  | anti-Stokes luminescence intensity vs temperature [2]: increases as the temperature increases; Anti-Stokes emission intensity vs temperature [3]: enhanced as the temperature increases
CC(=O)OCOC(=O)c1ccccc1C1=c2cc3c4c(c2Oc2c1cc1c5c2CCCN5CCC1)CCC[N+]=4CCC3 [Rh101AM] |  | does not substantially change as the temperature changes | 
N=c1ccc2c(-c3ccccc3C(=O)O)c3ccc(N)cc3oc-2c1 [Rh110] | does not possess temperature-sensitive properties |  | 
N#CC1=c2cc3c4c(c2Oc2c1cc1c5c2CCCN5CCC1)CCC[N+]=4CCC3 [Rh800] | does not possess temperature-sensitive properties at a wavelength of less than 700 nm |  | 
CCN(CC)c1ccc2c(-c3ccccc3C(=O)O)c3ccc(=[N+](CC)CC)cc-3oc2c1 [RhB, Rhodamine B] |  |  | Stokes emission intensity vs temperature [4]: decreased as the temperature increases
CCCCCCCCCCCCCCCCOC(=O)c1ccccc1-c1c2ccc(=[N+](CC)CC)cc-2oc2cc(N(CC)CC)ccc12 [RhB-C16] | possesses temperature-sensitive properties |  | 
CCN(CC)c1ccc2c(-c3ccccc3C(=O)OCOC(C)=O)c3ccc(=[N+](CC)CC)cc-3oc2c1 [RhBAM] |  | decreases as the temperature increases | 
CCN(CC)c1ccc2c(-c3ccccc3C(=O)OC)c3ccc(N(CC)CC)cc3[o+]c2c1.[Cl-] [RhBME] |  | decreases as the temperature increases | 
tetramethylrhodamine methyl ester [TMRM] | possess temperature-sensitive properties |  | 
